Patent US10786475B2, “Method for preventing, treating, or improving fatty liver by administering effective amounts of azelaic acid to a subject” (Korea University Research and Business Foundation, priority 2018, dated 2020)

Test system: fatty liver-induced mouse
Assay: Fatty liver inhibitory effect in high-fat diet fatty liver-induced wild-type C57BL/6J mouse
Type: in vivo
Conditions: WT mouse
Method: Mice used in the example, which were an eight-week-old C57BL/6J model, were purchased from Samtako, and Olfr544 KO mice were manufactured by Macrogen based on the C57BL/6J model using a CRISPR/Cas9 system. All experiments performed in the example are compliant to a protocol approved by the Animal Experiment Ethics Committee at Korea University (Protocol No. KUIACUC-20170322-1). The mice were acclimated at 21 to 25° C. under a 50 to 60% relative humidity condition for 12 hours before being used in the experiments, and a total of 18 mice were treated with an AzA diluted with distilled water at 50 mg/kg of body weight and distilled water as a control through oral administration for 6 weeks. The mice used in the experiments were fed a high-fat diet containing 60% fat (D12492, Research Diets, Inc) to induce fatty liver, and then a body weight was measured every week.
The measurement of the concentration of triglycerides in liver tissue was performed by homogenizing the obtained liver tissue of a mouse in 600 μL of acetone (Daejung, Korea), storing the homogenate at 4° C. for 24 hours, and obtaining a fat part by centrifugation at 12000 rpm for 10 minutes. The fat part was dried, dissolved in 95% ethanol, quantified using a Cobas C11 autoanalyzer (Roche, Basel, Switzerland), and normalized with a liver weight.
RNA was extracted from liver tissue, and the expression of PPARα and PPARα downstream genes such as Acox1, Cpt1a and Hmgcs2 were analyzed by qPCR according to the method of Example 3-1 described above.
To evaluate fatty acid oxidation, 100 mg of liver tissue was homogenized in a 0.25 M cold sucrose solution, centrifuged at 600 rpm and 4° C. thereby obtaining a supernatant, and then 50 μL of 10% Triton X-100 was added to 450 μL of the supernatant. Subsequently, 5 μL of the sample was mixed with 950 μL of 50 mM Tris-HCl, 10 μL of 20 mM NAD, 3 μL of 0.33 M dithiothreitol, 5 μL of 1.5% BSA, 5 μL of 2% Triton X-100, 10 μL of 10 mM CoA, and 10 μL of 1 mM FAD. The mixture was mixed with 2 μL of 5 mM palmitoyl-CoA, reacted at 37° C. and analyzed at 340 nm for 5 minutes using a spectrophotometer.
A C57BL/6J mouse and an Olfr544 KO mouse were treated with HFD and an AzA for 6 weeks and housed in a metabolic cage for three days, and the result at day 3 was analyzed as an experimental result. An oxygen consumption amount (VO2) and a carbon dioxide production amount (VCO2) were analyzed using an Oxylet Physiocage System (Panlab/Harvard apparatus, Cornella, Spain) and suiteMETABOLISM (V2.2.01, Panlab) software. A respiratory quotient (RQ) was calculated using the formula VCO2/VO2, and energy expenditure was analyzed using the formula EE=VO2×1.11×(3.815+1.232×RQ). The oxidation of a free fatty acid was calculated using the formula (1.6946×VO2)−(1.7012×VCO2).
An AzA (100 mg/kg) was intraperitoneally administered, and then concentration of a glycerol, which is a body fat decomposition marker, was measured. […] To measure glucose resistance and insulin resistance, a glucose and insulin resistance test was performed under a condition, in which glucose ([…]) and insulin (0.35 unit/kg/bw) are administered to a mouse.

[1] = HFD and AzA for 6 weeks, metabolic cage day 3
[2] = high-fat diet, AzA 50 mg/kg oral, 6 weeks
[3] = high-fat diet, AzA 50 mg/kg oral, 6 weeks, compared with control group

Q: Which “glucose resistance (glucose resistance test)” value does the source give for `O=C(O)CCCCCCCC(=O)O` [AzA, nonanedioic acid] here?
A: significantly improved

Q: What about the “insulin resistance (insulin resistance test)” value of the same compound?
A: significantly improved

Q: What about the “abdominal fat (microCT)” value (AzA 50 mg/kg/day) of the same compound?
A: significantly decreased

Q: And the “total fat amount (microCT)” value (AzA 50 mg/kg/day)?
A: significantly decreased

Q: What about the “blood glycerol concentration (body fat decomposition marker)” value (AzA 100 mg/kg intraperitoneally) of the same compound?
A: stimulated the decomposition of body fats

Q: What about the “oxidation of free fatty acids (indirect calorimetric analysis)” value [1] of the same compound?
A: increase

Q: What about the “respiratory quotient (indirect calorimetric analysis)” value [1] of the same compound?
A: decrease

Q: What about the “expression of PPARα and a target gene thereof in liver tissue” value [2] of the same compound?
A: significantly increased

Q: And the “triglyceride concentration in liver tissue” value [2]?
A: decreased

Q: What about the body weight [3] of the same compound?
A: decreased

Q: And the “fatty acid oxidation rate in liver tissue” value [3]?
A: increased
